Source: PubChem BioAssay (NCI)
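Values below derive from 48-hour exposures of cells grown in 96-well plates, with endpoints linearly interpolated between the two concentrations bracketing the appropriate inhibition level. TGI denotes the concentration required for complete inhibition of growth.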

Columns and labels:
Assay in all cases: NCI tumour cell line growth inhibition, 48 h
CAKI-1 renal = tested on: CAKI-1 renal
EKVX NSCLC = tested on: EKVX NSCLC
SK-MEL-28 melanoma = tested on: SK-MEL-28 melanoma
U251 CNS = tested on: U251 CNS
OVCAR-5 ovarian = tested on: OVCAR-5 ovarian
RXF 393 renal = tested on: RXF 393 renal
SK-MEL-2 melanoma = tested on: SK-MEL-2 melanoma
HOP-92 NSCLC = tested on: HOP-92 NSCLC
SK-OV-3 ovarian = tested on: SK-OV-3 ovarian
T-47D breast = tested on: T-47D breast
LOX IMVI melanoma = tested on: LOX IMVI melanoma
MOLT-4 leukemia = tested on: MOLT-4 leukemia
HS 578T breast = tested on: HS 578T breast
UACC-257 melanoma = tested on: UACC-257 melanoma
RPMI-8226 leukemia = tested on: RPMI-8226 leukemia
NCI/ADR-RES ovarian = tested on: NCI/ADR-RES ovarian
ACHN renal = tested on: ACHN renal
786-0 renal = tested on: 786-0 renal
M14 melanoma = tested on: M14 melanoma
A498 renal = tested on: A498 renal
NCI-H522 lung = tested on: NCI-H522 lung
SF-539 CNS = tested on: SF-539 CNS
MDA-MB-231 breast = tested on: MDA-MB-231 breast
BT-549 breast = tested on: BT-549 breast
UO-31 renal = tested on: UO-31 renal
A549 NSCLC = tested on: A549 NSCLC
MCF7 breast = tested on: MCF7 breast
NCI-H460 lung = tested on: NCI-H460 lung
HOP-62 NSCLC = tested on: HOP-62 NSCLC
PC-3 prostate = tested on: PC-3 prostate
DU-145 prostate = tested on: DU-145 prostate
UACC-62 melanoma = tested on: UACC-62 melanoma
HT29 colon = tested on: HT29 colon
SW-620 colon = tested on: SW-620 colon
OVCAR-4 ovarian = tested on: OVCAR-4 ovarian
KM12 colon = tested on: KM12 colon
SK-MEL-5 melanoma = tested on: SK-MEL-5 melanoma
SNB-19 CNS = tested on: SNB-19 CNS
SF-295 CNS = tested on: SF-295 CNS
MDA-MB-435 = tested on: MDA-MB-435
NCI-H226 lung = tested on: NCI-H226 lung
CCRF-CEM leukemia = tested on: CCRF-CEM leukemia
TK-10 renal = tested on: TK-10 renal
MDA-N = tested on: MDA-N
MALME-3M melanoma = tested on: MALME-3M melanoma
HCT-116 colon = tested on: HCT-116 colon
HL-60(TB) leukemia = tested on: HL-60(TB) leukemia
HCT-15 colon = tested on: HCT-15 colon
HCC-2998 colon = tested on: HCC-2998 colon
SN12C renal = tested on: SN12C renal
SF-268 CNS = tested on: SF-268 CNS
OVCAR-8 ovarian = tested on: OVCAR-8 ovarian
SNB-75 CNS = tested on: SNB-75 CNS
NCI-H23 lung = tested on: NCI-H23 lung
COLO 205 colon = tested on: COLO 205 colon
OVCAR-3 ovarian = tested on: OVCAR-3 ovarian
IGROV1 ovarian = tested on: IGROV1 ovarian
SR leukemia = tested on: SR leukemia

Measured: TGI

CCSc1cc(=O)n(C)c(=O)n1C
not listed: IGROV1 ovarian | SR leukemia
> 100 µM: all other assays above

Cn1c(-c2ccccc2)cc2c3ccsc3c3ccsc3c21
not listed: EKVX NSCLC | CCRF-CEM leukemia
> 100 µM: all other assays above
